# Assay results published in patent US9540702B2, “Stabilization of enzymes with stable coenzymes” (Roche Diabetes Care, Inc., priority 2009, dated 2017).
# Legend:
# D-lactate dehydrogenase = D-lactate dehydrogenase (Lactobacillus delbrueckii subsp. bulgaricus, UniProt P26297); assay: DSC of coenzyme binding; conditions: 3.8 mM ligand; 0.1M Tris buffer, pH 7.5
# [1] = biological target: T1, glucose dehydrogenase (GlucDH) (Bacillus subtilis, UniProt P12310); assay: Reaction kinetics, function curve and dry blank value of GlucDH/coenzyme formulations after warm, humid storage; assay type: biochemical
# Description: carbaNAD (FIG. 1A) or NAD were added to the glucose-specific GlucDH. These formulations were each applied to Pokalon foils (Lonza) and, after drying, stored under warm and humid conditions (32° C., 85% relative air humidity). Subsequently, the reaction kinetics and the function curve were determined at regular intervals. In parallel at each of the measurement times a cNAD/NAD analysis and a determination of the residual activity of the enzyme were carried out.
# However, a significant difference in the kinetics curves can be seen after 5 weeks.
# There is also a considerable difference in the blank values (dry blank value before application of a blood sample) as shown in FIG. 3.
# The different stability of glucose dehydrogenase in the presence of NAD or cNAD is also evident from a comparison of FIGS. 4 and 5. […] In this connection it is clear that the function of the enzyme is only slightly changed at high glucose concentrations over the entire period and approximately corresponds after 24 weeks to the value obtained after 5 weeks.
# [2] = biological target: T1, glucose dehydrogenase (GlucDH); assay: Stability of glucose dehydrogenase with coenzyme in a liquid phase at 50° C.; assay type: biochemical; conditions: 10 mg/ml GlucDH, 12 mg/ml coenzyme, pH 8.5
# Description: FIGS. 9A and 9B are graphical illustrations of the stability of glucose dehydrogenase in the presence of NAD or cNAD in a liquid phase at 50° C. for a period of 4 days (FIG. 9A) or 14 days (FIG. 9B) with test conditions of 10 mg/ml GlucDH; 12 mg/ml NAD or cNAD; buffer: 0.1 M Tris, 1.2 M NaCl, pH 8.5; temperature 50° C.
# After 95 hours at 50° C. the residual activity of glucose dehydrogenase in the presence of the native coenzyme NAD is […], whereas the residual activity of GlucDH in the presence of the artificial coenzyme cNAD is 75% (FIG. 9A). After 336 hours storage at 50° C. the residual activity of the enzyme stabilized with NAD is now only about 1%; a residual activity of still about 70% is observed for the enzyme stored in the presence of cNAD. The corresponding SDS gels also show a change in the GlucDH bands in the presence of the native coenzyme NAD: new bands are seen at higher molar masses and there is a shift in the 30 kDa band.
# T1 sequence (P12310 whole entry): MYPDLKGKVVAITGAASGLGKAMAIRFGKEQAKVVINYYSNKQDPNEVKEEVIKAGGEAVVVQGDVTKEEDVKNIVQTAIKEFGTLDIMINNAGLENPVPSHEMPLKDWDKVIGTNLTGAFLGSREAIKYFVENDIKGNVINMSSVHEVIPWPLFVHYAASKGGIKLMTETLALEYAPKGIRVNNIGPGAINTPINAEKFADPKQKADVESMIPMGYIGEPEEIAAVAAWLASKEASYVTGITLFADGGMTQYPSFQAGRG
# Chain of D-lactate dehydrogenase (P26297 whole entry): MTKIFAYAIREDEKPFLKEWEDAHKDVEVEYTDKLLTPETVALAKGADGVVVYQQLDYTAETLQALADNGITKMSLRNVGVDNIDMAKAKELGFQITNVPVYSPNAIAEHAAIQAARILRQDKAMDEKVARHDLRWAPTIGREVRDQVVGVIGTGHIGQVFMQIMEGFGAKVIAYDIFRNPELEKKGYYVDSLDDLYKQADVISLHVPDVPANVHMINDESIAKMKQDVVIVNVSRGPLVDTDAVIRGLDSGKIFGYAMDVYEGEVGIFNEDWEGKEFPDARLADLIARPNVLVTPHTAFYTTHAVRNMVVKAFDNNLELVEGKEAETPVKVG
structure (smiles),measurement,setting,value
NC(=O)c1ccc[n+]([C@@H]2C[C@H](COP(=O)([O-])OP(=O)(O)OC[C@H]3O[C@@H](n4cnc5c(N)ncnc54)[C@H](O)[C@@H]3O)[C@@H](O)[C@H]2O)c1 [carbaNAD],TM,D-lactate dehydrogenase,59.1 °C
same,ΔHcal,D-lactate dehydrogenase,19 kcal/mol
same,function curve of GlucDH,[1]; after 5 weeks at 32° C. and 85% air humidity,still lies within the set of curves of the previous measurements
same,kinetics curves of GlucDH,[1]; after 5 weeks at 32° C. and 85% relative air humidity,remains virtually unchanged
same,dry blank value before application of a blood sample,[1]; up to 5 weeks at 32° C. and 85% air humidity,does not occur
same,residual activity of glucose dehydrogenase,[2]; 95 hours at 50° C.,75%
same,residual activity of glucose dehydrogenase,[2]; 336 hours at 50° C.,about 70%
